Assay results taken from patent US20240010684A1, “MASP INHIBITORY COMPOUNDS AND USES THEREOF” (BAYER AKTIENGESELLSCHAFT, priority 2020, published 2024).
Read-outs that look alike come from different tables or passages of the source. Where a SMILES comes first, the peptide text is derived from it. Bridges are numbered along the chain shown (N, C = ends). [ ]: non-standard residue; d: D form. ξ: configuration not given here. Oic = O=C(O)[C@@H]1C[C@@H]2CCCC[C@@H]2N1; Trx = NC[C@H]1CC[C@H](C(=O)O)CC1; tBuAla = CC(C)(C)C[C@H](N)C(=O)O; Pen = CC(C)(S)[C@H](N)C(=O)O; ξIle = CC[C@H](C)C(N)C(=O)O; NMeC = CN[C@@H](CS)C(=O)O; Orn = NCCC[C@H](N)C(=O)O; Dab = NCC[C@H](N)C(=O)O; Dap = NC[C@H](N)C(=O)O; ξD = NC(CC(=O)O)C(=O)O

Tests used:
[1] = biological target: human MASP1 (Homo sapiens (Human), UniProt P48740); experiment: Biochemical human MASP1 assay (FRET substrate); settings: Average IC50; recombinant human MASP1; read-out: human MASP1 IC50
human MASP1, sequence (P48740 other isoform, or with tags, fused parts or gaps): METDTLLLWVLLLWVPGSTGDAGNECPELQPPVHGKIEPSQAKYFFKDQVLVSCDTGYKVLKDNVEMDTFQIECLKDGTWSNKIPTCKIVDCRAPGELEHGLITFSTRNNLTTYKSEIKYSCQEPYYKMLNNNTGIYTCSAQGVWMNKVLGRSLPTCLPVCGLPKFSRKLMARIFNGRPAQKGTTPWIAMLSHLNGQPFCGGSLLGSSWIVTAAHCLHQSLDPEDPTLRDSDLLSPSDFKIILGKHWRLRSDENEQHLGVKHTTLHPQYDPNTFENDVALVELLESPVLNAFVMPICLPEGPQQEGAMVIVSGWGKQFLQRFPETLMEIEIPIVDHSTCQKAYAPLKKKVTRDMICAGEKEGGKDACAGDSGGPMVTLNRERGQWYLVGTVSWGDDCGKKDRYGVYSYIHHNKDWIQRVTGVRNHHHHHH
Summary of the method: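 Recombinant human MASP1 (aa 297-699, C-terminal His tag, HEK293-expressed, Ni-NTA purified) diluted to 20 nM in 50 mM HEPES pH 8,0, 100 mM NaCl, 0,01% CHAPS, 0.5 mM glutathione, preincubated with compound in DMSO; reaction started with 20 μM ABZ/Dnp FRET substrate solution. Fluorescence (ex 320/em 420 nm) after 60-120 min at 32 C; IC50 from % inhibition.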

[2] = biological target: human MASP2 (Homo sapiens (Human), UniProt O00187); experiment: Biochemical human MASP2 assay (FRET substrate); settings: Average IC50; recombinant human MASP2; read-out: human MASP2 IC50
human MASP2, sequence (O00187 other isoform, or with tags, fused parts or gaps): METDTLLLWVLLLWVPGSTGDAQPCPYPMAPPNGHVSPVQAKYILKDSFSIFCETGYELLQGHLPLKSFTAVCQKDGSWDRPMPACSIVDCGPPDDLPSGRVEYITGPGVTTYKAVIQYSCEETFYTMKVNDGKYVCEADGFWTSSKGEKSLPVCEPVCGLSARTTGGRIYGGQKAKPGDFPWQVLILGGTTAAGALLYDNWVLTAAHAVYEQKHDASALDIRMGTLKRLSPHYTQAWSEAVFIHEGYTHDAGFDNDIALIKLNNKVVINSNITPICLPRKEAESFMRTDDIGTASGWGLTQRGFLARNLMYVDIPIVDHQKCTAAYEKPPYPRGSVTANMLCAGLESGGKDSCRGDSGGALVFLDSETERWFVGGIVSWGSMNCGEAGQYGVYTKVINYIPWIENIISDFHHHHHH
Summary of the method: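 Mature recombinant human MASP2, expressed in HEK293 and purified by Ni-NTA affinity, was reacted with a DABCYL FRET peptide substrate (added as a 60 μM solution) for 60-120 min at 32 C. Fluorescence increase was read at ex 340/em 490 nm; IC50 was derived from % inhibition versus compound concentration.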

[3] = tested on: Human C3-DEPOSITION SERUM; experiment: C3 deposition assay, human serum on mannan-coated plates; type: biochemical
Experimental: 3. C3 Deposition Assay (Human, Rat, Mouse, Dog, Pig))
The C3 deposition assay was conducted essentially as described (reference). Multiwell plates (Greiner-Nunc 384 Maxi Sorp #464718) were coated over night with Mannan from Saccharomyces cerevisiae (Sigma M7504, 10 μg/mL in 0.05 M carbonate-bicarbonate buffer, pH 9.6) at 4° C. Wells were washed three times with TBS and subsequently incubated for 2 hours with 50 μL of 1% bovine serum albumin (BSA) in Tris-buffered saline (TBS) at 37° C. in order to block non-specific binding. After this step and each of the following incubation steps wells were washed three times with C3 wash buffer (TBS; 0.05% Tween 20; 5 mM CaCl2). […] When appropriately developed the color reaction was stopped by addition of 25 μL of stop solution (Sigma S5814) and quantified on a photometer by measuring absorption at a wavelength of 450 nm. Antibodies were diluted in C3 wash buffer supplemented with 0.5% BSA.

[4] = biological target: rat MASP1 (Rattus norvegicus (Rat), UniProt Q8CHN8); experiment: Biochemical rat MASP1 assay (FRET substrate); settings: Average IC50; recombinant rat MASP1; read-out: rat MASP1 IC50
rat MASP1, sequence (Q8CHN8 other isoform, or with tags, fused parts or gaps): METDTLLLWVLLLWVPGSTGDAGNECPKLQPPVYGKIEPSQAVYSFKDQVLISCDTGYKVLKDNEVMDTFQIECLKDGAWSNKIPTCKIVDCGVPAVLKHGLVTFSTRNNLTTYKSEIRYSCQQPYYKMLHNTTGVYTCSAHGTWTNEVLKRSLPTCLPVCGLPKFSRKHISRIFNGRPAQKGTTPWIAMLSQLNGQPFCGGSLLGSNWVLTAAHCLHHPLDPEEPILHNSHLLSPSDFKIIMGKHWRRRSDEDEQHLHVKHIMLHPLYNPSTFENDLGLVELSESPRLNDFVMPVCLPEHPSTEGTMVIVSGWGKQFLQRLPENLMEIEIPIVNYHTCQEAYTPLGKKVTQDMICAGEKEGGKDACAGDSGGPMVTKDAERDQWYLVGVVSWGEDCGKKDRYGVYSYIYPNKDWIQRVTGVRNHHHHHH
From the text: A truncated cDNA sequence of rat MASP1encoding the fragment corresponding to the amino acids 302-704 with a C-terminal His Tag and N-terminal Ig-kappa secretion signal (SEQ ID No: 4) was subcloned into the mammalian expression vector pcDNA3.1 (Invitrogen).
(§1) The MASP1 or MASP2 expression vectors were transfected into the HEK293 (ATCC No. CRL-1573) cell line using Lipofectamine LTX® Reagent (Thermo-Fischer), as described by the manufacturer. The mature form of the recombinant rat MASP1 and MASP2 proteases were secreted into the culture medium. The MASP1 and MASP2 proteins were purified from the conditioned media by affinity chromatography on Ni-NTA Superflow resin (Qiagen) as described by the manufacturer.
4.2 Biochemical Rat MASP1 Assay.
Recombinant rat MASP1 enzyme produced in the HEK 293 cells was diluted in the reaction buffer (50 mM HEPES pH 8,0; 100 mM NaCl; 0,01% CHAPS; 0.5 mM Gluthathione) to the concentration of 4 nM and 25 μl was transferred into each single well of 384-well white microtiter plate (Greiner Bio One 781075). 1 μl of the inhibitor compound solution (dissolved in DMSO, at the corresponding concentration) or pure DMSO as a control was added to the same wells. The enzymatic reaction was initiated by addition of 25 μl of 40 μM solution of the FRET substrate Dabcyl-[…]-Glu(Edans)-NH2; (Dabcyl-4-((4-(dimethylamino)phenyl)azo)benzoic acid; Edans-5-[(2-Aminoethyl) amino]naphthalene-1-sulfonyl; custom synthesis by Jerini Peptide Technologies, Berlin) in the reaction buffer. The microtiter plate was incubated for 60-120 min at the temperature of 32 C. The increase of fluorescence intensity was measured in appropriate fluorescence plate reader (e.g. TECAN Ultra) using excitation wavelength of 340 nm and emission wavelength of 490 nm. IC50 values were calculated from percentage of inhibition of rat […] activity as a function of test compound concentration.

[5] = biological target: rat MASP2 (Rattus norvegicus (Rat), UniProt Q9JJS8); experiment: Biochemical rat MASP2 assay (FRET substrate); settings: Average IC50; recombinant rat MASP2; read-out: rat MASP2 IC50
rat MASP2, sequence (Q9JJS8 other isoform, or with tags, fused parts or gaps): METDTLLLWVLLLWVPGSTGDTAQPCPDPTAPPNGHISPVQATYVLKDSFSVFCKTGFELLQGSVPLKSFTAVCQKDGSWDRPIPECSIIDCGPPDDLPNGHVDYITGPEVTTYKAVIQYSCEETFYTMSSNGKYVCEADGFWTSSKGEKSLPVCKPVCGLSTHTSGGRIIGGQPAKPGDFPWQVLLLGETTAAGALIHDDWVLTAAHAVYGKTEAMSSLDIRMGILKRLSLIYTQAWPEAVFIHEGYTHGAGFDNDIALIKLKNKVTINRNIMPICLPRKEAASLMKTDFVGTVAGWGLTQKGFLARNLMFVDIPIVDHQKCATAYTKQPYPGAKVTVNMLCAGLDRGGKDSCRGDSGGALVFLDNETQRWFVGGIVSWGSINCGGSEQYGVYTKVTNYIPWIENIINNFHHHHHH
From the text: as §1, with “The mature form of the recombinant rat MASP1 and MASP2 proteases were secreted into the culture medium.” left out, “M[…]” for “MASP2 proteins”

[6] = Average IC50, read-out: Human C3-DEPOSITION SERUM IC50

Row | Structure (SMILES) | IC50 [1] | IC50 [2] | IC50 [3, 6] | IC50 ([3]; Average IC50, read-out: Human C3-[…] IC50) | IC50 [4] | IC50 [5]
1 | CC[C@H](C)[C@@H]1NC(=O)CNC(=O)[C@H]2CC[C@@H](CC2)CNC(=O)CNC(=O)CC(C(N)=O)NC(=O)[C@@H]2CCCN2C(=O)[C@H]([C@@H](C)CC)NC(=O)[C@H]2NC(=O)[C@H]([C@@H](C)CC)NC(=O)[C@@H]3CCCN3C(=O)[C@@H]3CCCN3C(=O)[C@H](CC(C)(C)C)NC(=O)[C@H](CO)NC(=O)[C@H](CCCNC(=N)N)NC(=O)[C@H](CO)NC(=O)[C@H](CSSC2(C)C)NC1=O (stereo partly drawn) [Example 62, (1R,4S,10S,21S,24S,30S,33R,36S,39S,42S,45S,51S,57S,60S)-4,30,60-tri[(2S)-butan-2-yl]-39-(3-carbamimidamidopropyl)-45-(2,2-dimethylpropyl)-36,42-bis(hydroxymethyl)-63,63-dimethyl-2,5,11,15,18,25,28,31,34,37,40,43,46,52,58,61-hexadecaoxo-64,65-dithia-3,6,12,16,19,26,29,32,35,38,41,44,47,53,59,62-hexadecaazahexacyclo[31.29.4.2^21,240.0^6,100.0^47,510.0^53,57]octahexacontane-13-carboxamide] (G[Trx]GICSRS[tBuAla]PPI[Pen]IP[ξD]-NH2; disulfide 5-13; lactam N-16) | 22 nM | 540 nM | 149 nM |  |  | 
2 | CC[C@H](C)[C@@H]1NC(=O)[C@@H](N)CNC(=O)[C@@H]2CCCN2C(=O)[C@H]([C@@H](C)CC)NC(=O)[C@H]2NC(=O)[C@H]([C@@H](C)CC)NC(=O)[C@@H]3C[C@@H]4CCCC[C@@H]4N3C(=O)[C@@H]3CCCN3C(=O)[C@H](CC(C)C)NC(=O)[C@H](CO)NC(=O)[C@H](CCCNC(=N)N)NC(=O)[C@H](CO)NC(=O)[C@H](CSSC2(C)C)NC1=O [Example 85] (H-[Dap]ICSRSLP[Oic]I[Pen]IP; lactam 1-C; disulfide 3-11) | 1000 nM | 1000 nM | 3130 nM |  |  | 
3 | CC[C@H](C)C1NC(=O)[C@@H]2CSSC[C@H](NC(=O)[C@H]([C@@H](C)CC)NC(=O)[C@H](C)NC(=O)[C@@H](N)CCCNC(=O)C[C@@H](C(N)=O)NC(=O)[C@@H]3CCCN3C1=O)C(=O)N[C@@H](CO)C(=O)N[C@@H](CCCNC(=N)N)C(=O)N[C@@H](CO)C(=O)N[C@@H](CC(C)(C)C)C(=O)N1CCC[C@H]1C(=O)N1CCC[C@H]1C(=O)N[C@@H]([C@@H](C)CC)C(=O)N2C (stereo partly shown) [Example 44] (H-[Orn]AICSRS[tBuAla]PPI[NMeC][ξIle]PD-NH2; lactam 1-15; disulfide 4-12) | 4.7 nM | 230 nM | 23.7 nM |  |  | 
4 | CC[C@H](C)[C@@H]1NC(=O)CCCNC(=O)[C@H](CC(=O)O)NC(=O)[C@@H]2CCCN2C(=O)[C@H]([C@@H](C)CC)NC(=O)[C@@H]2CSSC[C@H](NC1=O)C(=O)N[C@@H](CO)C(=O)N[C@@H](CCCNC(=N)N)C(=O)N[C@@H](CO)C(=O)N[C@@H](CC(C)(C)C)C(=O)N1CCC[C@H]1C(=O)N1CCC[C@H]1C(=O)N[C@@H]([C@@H](C)CC)C(=O)N2C [Example 36] | 8.7 nM | 110 nM | 8.68 nM |  |  | 
5 | CC[C@H](C)[C@@H]1NC(=O)[C@@H]2CCCN2C(=O)[C@@H]2CCCN2C(=O)[C@H](CC(C)(C)C)NC(=O)[C@H](CO)NC(=O)[C@H](CCCNC(=N)N)NC(=O)[C@H](CO)NC(=O)[C@@H]2CSSC(C)(C)[C@H](NC1=O)C(=O)N[C@@H]([C@@H](C)CC)C(=O)N1CCC[C@H]1C(=O)NCCCCCC(=O)NC[C@H]1CC[C@@H](CC1)C(=O)N[C@@H]([C@@H](C)CC)C(=O)N2 [Example 59, N-{3-[(1R,4S,7S,13S,19S,22S,25S,28S,31R,34S,37S,40S,51S,57S)-4,34,57-tri[(2S)-butan-2-yl]-19-(2,2-dimethylpropyl)-22,28-bis(hydroxymethyl)-60,60-dimethyl-3,6,12,18,21,24,27,30,33,36,43,50,56,59-tetradecaoxo-61,62-dithia-2,5,11,17,20,23,26,29,32,35,42,49,55,58-tetradecaazahexacyclo[29.28.4.2^37,400.0^7,110.0^13,170.0^51,55]pentahexacontan-25-yl]propyl}guanidine] | 11 nM | 5.7 nM |  | 177 nM | 48.6 nM | 
6 | CC[C@H](C)[C@@H]1NC(=O)[C@H](C)NC(=O)[C@@H](N)CSSC[C@@H](C(N)=O)NC(=O)[C@H](CC(=O)O)NC(=O)[C@@H]2CCCN2C(=O)[C@H]([C@@H](C)CC)NC(=O)[C@H]2NC(=O)[C@H]([C@@H](C)CC)NC(=O)[C@@H]3CCCN3C(=O)[C@@H]3CCCN3C(=O)[C@H](CC(C)(C)C)NC(=O)[C@H](CO)NC(=O)[C@H](CCCNC(=N)N)NC(=O)[C@H](CO)NC(=O)[C@H](CSSC2(C)C)NC1=O [Example 50] (H-CAICSRS[tBuAla]PPI[Pen]IPDC-NH2; disulfide 1-16, 4-12) | 13 nM | 210 nM | 228 nM |  |  | 
7 | CC[C@H](C)[C@@H]1NC(=O)[C@H](CCN)NC(=O)[C@@H]2CCCN2C(=O)[C@H]([C@@H](C)CC)NC(=O)[C@H]2NC(=O)[C@H]([C@@H](C)CC)NC(=O)[C@@H]3CCCN3C(=O)[C@@H]3CCCN3C(=O)[C@H](CC(C)(C)C)NC(=O)[C@H](CO)NC(=O)[C@H](CCCNC(=N)N)NC(=O)[C@H](CO)NC(=O)[C@H](CSSC2(C)C)NC1=O [Example 56, N-{3-[(6S,9S,12S,15S,18R,21S,24S,26aS,32S,35R,38S,40aS,45aS)-24-(2-aminoethyl)-21,32,38-tri[(2S)-butan-2-yl]-6-(2,2-dimethylpropyl)-9,15-bis(hydroxymethyl)-46,46-dimethyl-5,8,11,14,17,20,23,26,31,34,37,40,45-tridecaoxotetratetracontahydro-1H-18,35-(methanodithiomethano)tripyrrolo[1,2-a:1′,2′-d:1″,2″-p]-[1,4,7,10,13,16,19,22,25,28,31,34,37]tridecaazacyclononatriacontin-12-yl]propyl}guanidine] (cyclo(CSRS[tBuAla]PPI[Pen]IP[Dab]I); disulfide 1-9) | 86 nM | 1100 nM | 566 nM |  |  | 
8 | CC[C@H](C)[C@@H]1NC(=O)[C@@H]2CSSC[C@H](NC(=O)[C@H](Cc3ccc(O)cc3)NC(=O)CNC(=O)[C@H](CC(=O)O)NC(=O)[C@@H]3CCCN3C1=O)C(=O)N[C@@H](CO)C(=O)N[C@@H](CCCNC(=N)N)C(=O)N[C@@H](CO)C(=O)N[C@@H](Cc1ccc(O)cc1)C(=O)N1CCC[C@H]1C(=O)N1CCC[C@H]1C(=O)N[C@@H](C(C)C)C(=O)N2 [Ref. No 8, reference compound] (cyclo(CIPDGYCSRSYPPV); disulfide 1-7) | 8130 nM |  |  |  | 1000 nM | 126 nM
